The star is where a group is joined. Decanoyl = CCCCCCCCCC(=O)*; CH2Cl = ClC*

The test system of assay [1] is proteolytic processing of VEGF-DΔN. As to the kind of experiment: Processing of VEGF-DΔN by 293EBNA cells (cleavage of C-terminal propeptide from VHD). In kind it is cell-based, human. Particulars: for band representing mature VHD from VEGF-DΔN: 1, 10, 50, 100 μM, 18 hours. The text has this:
(§1) An expression plasmid encoding a truncated derivative of human VEGF-D consisting of the N-terminal propeptide and the VHD tagged at the carboxyl terminus with the FLAG epitope (referred to as VEGF-DΔC) (FIG. 3, top panel) has been previously described (Stacker et al, J. Biol. Chem. 274 32127-32136, 1999). The VEGF-DΔC protein construct facilitates study of cleavage of the N-terminal propeptide from the VHD. The conditioned media of 293EBNA cells stably transfected with the VEGF-DΔC expression plasmid contain a mixture of VEGF-D proteins, including unprocessed VEGF-DΔC, and the proteolytically processed VHD. A second cell line was generated by stable transfection of 293EBNA cells with an expression construct encoding VEGF-DΔN, a truncated derivative of human VEGF-D consisting of the VHD tagged at the amino terminus with the FLAG epitope and C-terminal propeptide (FIG. 3, top panel). This protein construct facilitates study of cleavage of the C-terminal propeptide from the VHD. The conditioned media of 293EBNA cells expressing VEGF-DΔN contain a mixture of VEGF-D proteins, consisting of unprocessed VEGF-DΔN, and the proteolytically processed VHD. The VEGF-DΔN expression plasmid was constructed by replacing the 2-kb EcoRV fragment of the pAPEX-3 construct for full-length VEGF-D with the 2-kb EcoRV fragment of the pAPEX-3 construct for VEGF-DΔNΔC-FLAG (Stacker et al, J. Biol. Chem. 274 32127-32136, 1999).
The 293EBNA cell lines expressing VEGF-D-FULL-FLAG, VEGF-DΔC or VEGF-DΔN were seeded into 24-well plates (8×10^4 cells/well), in medium supplemented with Dec-RVKR-CMK dissolved in methanol, to a final concentration of 0, 1, 10, 50 or 100 μM. After 18 hours incubation (37° C., 10% CO2 in an humidified incubator), conditioned cell culture media were removed and clarified by centrifugation (5 minutes, 250×g, 4° C.). […] The precipitated VEGF-D species were then analysed by reducing SDS-PAGE and Western blotting using a biotinylated antibody against the VHD of human VEGF-D (R&D Systems), and Streptavidin-horse radish peroxidase conjugate (Zymed).

In assay [2] the test system is proteolytic processing of VEGF-DΔC. As to the kind of experiment: Processing of VEGF-DΔC by 293EBNA cells (cleavage of N-terminal propeptide from VHD). It counts as cell-based, human. Particulars: for band representing mature VHD from VEGF-DΔC: 1, 10, 50, 100 μM, 18 hours.
Text: as §1
The 293EBNA cell lines expressing VEGF-D-FULL-FLAG, VEGF-DΔC or VEGF-DΔN were seeded into 24-well plates (8×10^4 cells/well), in medium supplemented with Dec-RVKR-CMK dissolved in methanol, to a final concentration of 0, 1, 10, 50 or 100 μM. After 18 hours incubation (37° C., 10% CO2 in an humidified incubator), conditioned cell culture media were removed and clarified by centrifugation (5 minutes, 250×g, 4° C.). VEGF-D species were immunoprecipitated from conditioned media of 293EBNA VEGF-DΔC cells by addition of M2-agarose beads (Sigma-Aldrich), that bind the FLAG epitope attached to the carboxyl-terminus of the VHD, and from conditioned media of 293EBNA VEGF-DΔN cells by addition of A2 antiserum, that binds to epitopes within the VHD (Stacker et al, J. Biol. Chem. 274 32127-32136, 1999), followed by incubation with protein-A sepharose beads. Beads and bound proteins were recovered by centrifugation (5 minutes, 250×g, 4° C.) and washed twice with Tris-buffered saline (TBS; 50 mM Tris-Cl, 150 mM NaCl, pH 8.0). The precipitated VEGF-D species were then analysed by reducing SDS-PAGE and Western blotting using a biotinylated antibody against the VHD of human VEGF-D (R&D Systems), and Streptavidin-horse radish peroxidase conjugate (Zymed).

The subject of assay [3] is proteolytic processing of VEGF-C. Kind of assay: Processing of VEGF-C secreted by 293EBNA cells expressing VEGF-C-FULL-N-Myc (immunoprecipitation/Western blot). In kind it is cell-based, human. Particulars: 0, 1, 10, 50 or 100 μM, 18 hours, Western blot. On the procedure:
293EBNA cells stably transfected with an expression construct encoding VEGF-C-FULL-N-Myc (full-length VEGF-C tagged with Myc at the N-terminus) or VEGF-D-FULL-N-FLAG (full-length VEGF-D tagged with FLAG at the N-terminus) secrete fully and partially processed forms of VEGF-C or VEGF-D into the culture medium (Joukov et al., EMBO J. 16:3898-3911 1997; Stacker et al., J. Biol. Chem. 274: 32127-32136, 1999). These cells were grown overnight in 24-well plates, seeded with 8×10^4 cells per well. At the time when cultures were initiated in these plates, growth medium was supplemented with Dec-RVKR-CMK (Calbiochem) (dissolved in methanol) to a final concentration of 0, 1, 10, 50 or 100 μM. Solvent control cultures were also established, in which the medium was supplemented with methanol at concentrations equal to those present in the cultures treated with inhibitor. […]
VEGF-C species were immunoprecipitated from conditioned medium by addition of anti-VEGF-C antibody that binds the VHD and C-terminal propeptide (R&D Systems). […] The precipitated VEGF-C and VEGF-D species were then analysed by Western blot using biotinylated antibodies against the VHD and C terminus of VEGF-C, or the VHD of VEGF-D (R&D Systems) and streptavidin-horse radish peroxidase conjugate (Zymed) (FIGS. 1 and 2). […]

Assay [4] deals with Furin (Homo sapiens, UniProt P09958). Particulars: cited from earlier work.
Furin, sequence (P09958 108-794, species assumed): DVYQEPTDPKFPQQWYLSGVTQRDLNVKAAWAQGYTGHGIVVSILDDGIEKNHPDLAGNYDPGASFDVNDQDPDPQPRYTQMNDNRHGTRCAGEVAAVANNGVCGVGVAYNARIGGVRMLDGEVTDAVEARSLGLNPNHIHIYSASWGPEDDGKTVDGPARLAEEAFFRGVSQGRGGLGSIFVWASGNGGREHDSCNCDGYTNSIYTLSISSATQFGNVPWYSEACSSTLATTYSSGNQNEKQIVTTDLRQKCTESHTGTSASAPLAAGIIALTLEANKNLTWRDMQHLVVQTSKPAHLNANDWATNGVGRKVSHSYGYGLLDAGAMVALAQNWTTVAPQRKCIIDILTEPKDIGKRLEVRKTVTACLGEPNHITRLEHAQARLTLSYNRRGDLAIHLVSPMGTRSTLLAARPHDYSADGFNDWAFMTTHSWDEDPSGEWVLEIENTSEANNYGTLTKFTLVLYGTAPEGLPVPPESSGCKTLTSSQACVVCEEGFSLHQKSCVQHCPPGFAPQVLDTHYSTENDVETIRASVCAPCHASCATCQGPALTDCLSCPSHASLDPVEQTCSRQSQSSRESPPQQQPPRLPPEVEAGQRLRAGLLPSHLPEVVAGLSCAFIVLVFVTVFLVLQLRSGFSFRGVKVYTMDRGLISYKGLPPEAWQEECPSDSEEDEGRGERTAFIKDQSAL

“Decanoyl-Arg-Val-Lys-Arg-chloromethylketone (Decanoyl-RVKR-CH2Cl) [Dec-RVKR-CMK]”: the “proteolytic processing of VEGF-DΔN” value in assay [1] (100 μM) is recorded as “completely blocked”. The results for the “band representing mature VHD from VEGF-DΔN” value in assay [1] and in assay [1] (listed as dec-RVKR-CMK) were “reduced in abundance in a dose dependent manner” and “blocked each of these processing events in a dose-dependent fashion”, respectively. The “proteolytic cleavage of the N-terminal propeptide from the VHD, at both Major and Minor cleavage sites” value in assay [2] is “completely abrogated”. Moreover, the “proteolytic processing of VEGF-DΔC” value in assay [2] (100 μM) is listed as “completely blocked”. Also, the “band representing mature VHD from VEGF-DΔC” value is “reduced in abundance in a dose dependent manner” in assay [2] and “blocked each of these processing events in a dose-dependent fashion” in assay [2] (listed as dec-RVKR-CMK). For the same substance, the “abundance of fully and partially processed forms of VEGF-C” value in assay [3] was “dramatically reduced in abundance in a dose-dependent manner”. For the same substance, the inhibition of furin entry in assay [4] is given as “potently inhibited”.

The record behind these values is patent US20070224194A1, “Methods for Inhibiting Angiogenesis and/or Lymphangiogenesis” (LUDWIG INSTITUTE FOR CANCER RESEARCH, priority 2004, published 2007).
